According to patent US20190262431A1, “CBL-FAMILY INHIBITOR COMPRISING A CBL-FAMILY TKB DOMAIN BINDING PEPTIDE FOR THE PREVENTION OR TREATMENT OF DISEASES” (IMBA - INSTITUT FÜR MOLEKULARE BIOTECHNOLOGIE GMBH, priority 2016, published 2019):
Non-standard residues stand in square brackets, D forms with d. Residues, ends and D or L forms follow the SMILES beside them. No end group written: not given here. *: point of attachment. pY = N[C@@H](Cc1ccc(OP(=O)(O)O)cc1)C(=O)O; Cbz = O=C(OCc1ccccc1)*

Assays:
[1] = system: BM-DC; test: Killing assay (fungicidal activity against Candida albicans); type: cell-based, mouse; details: for BM-DC mediated Candida albicans killing in the presence of inhibitor: inhibitor added 30 min prior to stimulation
Experimental: To assess the fungicidal activity, the indicated immune cells were plated in replicates at a density of 1×10^5 cells/well in 96-well plates. Cells were incubated with Candida albicans at a multiplicity of infection of 1:500 for 24 h. After incubation, phagocytes were fixed by the addition of paraformaldehyde at a final concentration of 4%. Subsequently, Candida albicans were stained with Crystal Violet (Sigma) and killing was assessed by a comparison of colony numbers in wells with or without phagocytes.
(§1) BM-M and BM-DC were stimulated with C. albicans (strain SC5314), Zymosan (Invivogen), Curdlan (Invivogen), TDM (Invivogen), CpG (Invivogen), LPS (Invivogen), or C. albicans hyphae. For inhibition experiments cells were treated with the Syk inhibitor R406 (Selleckchem), anti-Dectin-1 antibody (Invivogen), MG132 (Calbiochem), or Dynasore (Sigma-Aldrich), 30 min prior to stimulation (MOI: Immune cell: C. albicans=1:2). Fungal isolates of Candida krusei, Candida glabrata, and Candida dubliniensis were kindly provided by the Allgemeines Krankenhaus Vienna (AKH). Fungal isoates were tested by PCR to verify the respective species.

[2] = system: B16-SIY melanoma cells; test: B16-SIY in vivo tumor model; set-up: species or system mouse; details: C57Bl/6 mice; 100 μg i.p. every other day
Experimental: B16-SIY tumor cells as described in (Spranger, 2014) were cultured in DMEM cell culture media (Gibco) supplemented with 10% fetal bovine serum (Sigma), L-Glutamine (Thermo Fisher), Penicillin and Streptomycin (Thermo Fisher). 10^6 tumor cells were transplanted intradermally into C57Bl/6 mice. Mice were injected intraperitoneally with 100 μg of the indicated peptides or vehicle control every other day starting 24 h after tumor cell inoculation. Bodyweight and tumor volume were measured at the indicated time points, subsequently.

[3] = system: phosphorylated Syk; test: Western blotting of Syk in Candida albicans stimulated BM-DC with MG132; type: cell-based, mouse; details: MG132 10 μM
Experimental: as §1
Western blotting was performed according to standard protocols. Blots were blocked for 1 hour with 5% bovine serum albumin in 1×TBS/0.1% Tween-20, or 4% BSA in 1×TBS/0.1% Tween-20 for phosphorylated epitopes, followed by overnight incubation at 4° C. with primary antibodies. Subsequently, blots were washed three times in 1×TBS/0.1% Tween-20 for 15 min, followed by incubation with HRP-conjugated secondary antibodies (1:2500; GE Healthcare # NA9340V) for 45 min at room temperature, washed three times in 1×TBS/0.1% Tween-20 for 15 min and visualized using enhanced chemiluminescence (ECL Plus, Pierce). […] Precipitates were analyzed by Western blotting using the indicated antibodies. […] Precipitates were analyzed by Western blotting with the indicated antibodies.

[4] = system: BM-DC; test: Cytokine secretion by Candida albicans stimulated BM-DC (ELISA); type: cell-based, mouse; details: 18 h
Experimental: Cytokine secretion by cell culture supernatants or in the peritoneal lavage was assessed with ELISA kits purchased from eBioscience (IL-1β, TNF, IL-6, IL-12, IL-23) or R&D Systems (IL-1Ra) according to the manufacturer's instructions. Production of reactive oxygen species (ROS) was measured with as assay using luminol as the probe in real-time over 90 min as described previously (Bourgeois et al., 2009). Caspase-8 activity was assessed using the CaspGLOW assay (Promega) according to the manufacturer's instructions.
as §1

[5] = system: Candida albicans; test: Systemic (intravenous) Candida albicans infection of mice; type: in vivo, mouse; details: control peptides versus untreated control cohort
Experimental: 8-10 week old mice were infected with 10^5 colony forming units (CFU) of C. albicans (strain SC5314), 10^5 colony forming units (CFU) of C. dubliniensis, or 10^5 CFUs of Listeria monocytogenes (strain EGD) intravenously. C. albicans CFUs were assessed from various organs as described (Wirnsberger et al., 2014). For clodronate or PBS liposome treatment experiments, mice were injected intraperitoneally with 100 ul/10 g mouse weight of liposomes both 24 h before and 24 h after intravenous C. albicans infections. Clodronate or PBS control liposomes were obtained from clodronateliposomes.org, and handled according to the manufacturer's instructions.

[6] = system: BM-DC; test: ROS production by BM-DC co-cultured with Candida albicans (luminol assay); type: cell-based, mouse; details: Cbl-b+/+ BM-DC; 100 μM peptide; versus no peptide
From the text: BM-DC or BM-M were obtained by differentiation from bone marrow precursor cells.

[7] = system: human CD4+ T cells; test: Human T cell assays (CFSE proliferation, IFN-γ ELISA, CD69), CD4+ T cells; type: cell-based
Experimental: (§2) Peripheral blood mononuclear cells (PBMC) were purified from human blood using a Lymphoprep™ PBMC isolation kit (Stemcell Technologies), according to the manufacturer's instructions. Human CD4+ or CD8+ T cells were purified from PBMC using CD4 or CD8 MicroBeads (Miltenyi Biotec), respectively, and MACS technology (Miltenyi Biotec). For proliferation assays, flat-bottom 96-well plates were coated with CD3 (OKT3, 0.1 μg/ml) and CD28 (CD28.2, 0.1 μg/ml) antibodies in PBS at 37 degrees C. for 2 h. To monitor proliferative expansion, assays were carried out with carboxyfluorescein succinimidyl ester (CFSE; eBioscience) labeled T cells. T cells were cultured in X-VIVO 15 chemically defined, serum free hematopoietic cell medium (Lonza), with the indicated concentrations of peptide or vehicle control. After 72 h […], cells were labeled with antibodies against CD4 (RPA-T4, Brilliant Violet 510 labeled, Biolegend) or CD8 (RPA-T8, APC-eFluor 780 labeled, eBioscience), and CD69 (FN50, PE/Cy7 labeled, Biolegend), and analyzed on a Beckman Coulter Gallios flow cytometer. Data were analyzed using Beckman Coulter Kaluza software. IFN-γ secretion into cell culture supernatants of the proliferation assays was determined by enzyme-linked immunosorbent assays (ELISA) according to the manufacturer's (BD Biosciences) instructions.

[8] = system: human CD8+ T cells; test: Human T cell assays (CFSE proliferation), CD8+ T cells; type: cell-based; details: plate bound CD3/CD28 antibodies; 3 days; CFSE dilution
Experimental: as §2

[9] = system: murine CD4+ T cells; test: Murine T cell proliferation assay; type: cell-based, mouse; details: for proliferative response of cblb Δ/Δ CD4+ T cells: CD3 or CD3 plus CD28 antibodies, versus untreated cells; for proliferative response of cblb Δ/Δ CD4+ T cells / proliferative response of cblb+/+ CD4+ T cells: 3 days; for proliferative response of cblb+/+ CD4+ T cells: plate bound CD3 or CD3 plus soluble CD28 antibodies, versus no peptide
Experimental: Murine CD4+ T cells were purified from pooled spleens and lymph nodes using MACS technology (Miltenyi Biotec). […] Purified T cells were labeled with the cell proliferation dye eFluor 670 (eBioscience) and cultured in IMDM cell culture medium (Gibco), supplemented with 10% fetal bovine serum (Sigma), L-Glutamine (Thermo Fisher), Penicillin and Streptomycin (Thermo Fisher), in the presence of 5 ng/ml of recombinant IL-2 (Biolegend) and the indicated concentrations of peptide. After 3 days, cells were stained with the fixable viability dye eFluor 780 (Thermo Fisher), and stained with a CD4 antibody (RM4-5, Brilliant Violet 711, Biolegend). Cells were analyzed with a BD LSR Fortessa II flow cytometer (Becton Dickinson), subsequently, and data were analyzed using the FlowJo v10.0.8 software (Tree Star).

O=C(N/N=C/c1ccc(O)c(O)c1)c1cc2ccccc2cc1O [Dynasore]
BM-DC mediated Candida albicans killing in the presence of inhibitor [1]: abrogated

CC[C@H](C)[C@H](NC(=O)[C@H](CCCCN)NC(=O)[C@@H](NC(=O)[C@H](CCC(N)=O)NC(=O)[C@H](CCCNC(=N)N)NC(=O)[C@@H](N)CC(=O)O)[C@@H](C)CC)C(=O)N[C@@H](Cc1c[nH]c2ccccc12)C(=O)N[C@@H](Cc1ccccc1)C(=O)N[C@@H](CCC(N)=O)C(=O)N[C@@H](CC(N)=O)C(=O)N[C@@H](CCCNC(=N)N)C(=O)N[C@@H](CCCNC(=N)N)C(=O)N[C@@H](CCSC)C(=O)N[C@@H](CCCCN)C(=O)N[C@@H](Cc1c[nH]c2ccccc12)C(=O)N[C@@H](CCCCN)C(=O)N[C@@H](CCCCN)C(=O)N[C@@H](CO)C(=O)N[C@H](C(=O)N1CCC[C@H]1C(=O)N[C@@H](CC(N)=O)C(=O)N[C@@H](Cc1ccccc1)C(=O)NCC(=O)N[C@H](C(=O)N[C@@H](Cc1ccc(OP(=O)(O)O)cc1)C(=O)NCC(=O)N[C@H](C(=O)N[C@@H](CO)C(=O)N1CCC[C@H]1C(=O)N[C@@H](Cc1c[nH]c2ccccc12)C(=O)NCC(=O)N1CCC[C@H]1C(=O)N[C@@H](CCC(=O)O)C(=O)O)[C@@H](C)O)C(C)C)[C@@H](C)O [M2]
bodyweight gain [2]: did not affect

CC(C)C[C@@H](C=O)NC(=O)[C@H](CC(C)C)NC(=O)[C@H](CC(C)C)NC(=O)OCc1ccccc1 [MG132] (Cbz-Leu-Leu-Leu-aldehyde)
levels of phosphorylated Syk ([3]; Cbl-b Δ/Δ BM-DC stimulated with Candida albicans): did not change
phosphorylated Syk in lysates ([3]; Cbl-b+/+ BM-DC stimulated with Candida albicans): increase

COc1cc(Nc2ncc(F)c(Nc3ccc4c(n3)NC(=O)C(C)(C)O4)n2)cc(OC)c1OC [R406]
BM-DC mediated Candida albicans killing in the presence of inhibitor [1]: almost completely abrogated
IL-1β secretion by Candida albicans stimulated BM-DC ([4]; BM-DC of all three genotypes): almost completely abrogated
release of IL-6 by Candida albicans stimulated BM-DC ([4]; all three genotypes): almost completely abrogated
release of TNF by Candida albicans stimulated BM-DC ([4]; all three genotypes): almost completely abrogated

DRQIKIWFQNRRMKWKK [Antennapedia peptide, cell penetrating peptide derived from the Drosophila Antennapedia homeodomain, used alone as control]
morbidity or mortality [5]: did not affect
ROS production by BM-DC in response to Candida albicans stimulation [6]: did not affect
fungicidal activity (killing capacity) of BM-DC upon Candida albicans infection ([1]; 24 h co-culture, 100 μM peptide): did not affect

DRQIKIWFQNRRMKWKKEAVPLYAWYPNPSTFES (DRQIKIWFQNRRMKWKKEAVPLYAW[pY]PNPSTFES; listed as Homo sapiens) [H2]
effects on proliferation, IFN-γ and CD69 of human T cells ([7]; scrambled control, compared with H1): Slight effects

DRQIKIWFQNRRMKWKKSTVSFNPYEPELAPWA (DRQIKIWFQNRRMKWKKSTVSFNP[pY]EPELAPWA; listed as Homo sapiens) [H1]
activation marker CD69 on T cells ([7]; percentage of CD69+ of total CD4+ cells, versus untreated cells): dose dependent upregulation
proliferative response of human CD4+ T cells ([7]; plate bound CD3/CD28 antibodies, 3 days, CFSE dilution): dose dependent significant increase
production of IFN-γ by CD4+ T cells ([7]; supernatants of proliferation assay, ELISA): increased significantly
proliferative response of human CD8+ T cells [8]: dose dependent significant increase

KIKKTKKKGRKKIKKTKKKGRKSTPNFGVYGTSPWGPE (KIKKTKKKGRKKIKKTKKKGRKSTPNFGV[pY]GTSPWGPE; listed as Mus musculus) [M4]
proliferative response of cblb Δ/Δ CD4+ T cells [9]: only mildly increased
proliferative response of cblb+/+ CD4+ T cells [9]: only mildly increased

KIKKTKKKGRKKIKKTKKKGRKSTVSFNPYEPTGGPWG (KIKKTKKKGRKKIKKTKKKGRKSTVSFNP[pY]EPTGGPWG; listed as Mus musculus) [M3]
proliferative response of cblb Δ/Δ CD4+ T cells [9]: marked increase
effect on proliferation under suboptimal stimulatory conditions ([9]; low concentrations of CD3, with or without CD28 co-stimulation): more pronounced effects
proliferative response of cblb+/+ CD4+ T cells [9]: dose dependent increase
